Counter-ions that a name gives are not always drawn. Like-named read-outs stand apart in the source and are kept apart here.
Columns and labels:
[1] = target: T1, c-Kit (Rattus norvegicus, UniProt F7EWK5); settings: acute ethanol administration
[2] = system: SD rats
Text: Groups: A total of 14 groups (n=10) were included.
The rest process was the same as that in Example 3.

[3] = system: SD rats; experiment: Morphine sensitization model (spontaneous activity); format: in vivo
[4] = system: SD rats; experiment: Ethanol sensitization model; format: in vivo; settings: imatinib mesylate 15, 20, or 30 mg/kg
[5] = system: SD rats; experiment: Development of high-sugar and high-fat food-induced CPP; format: in vivo
[6] = system: SD rats; experiment: Nicotine withdrawal symptoms (spontaneous activity); format: in vivo
Text: Test instrument: Conditional place preference (CPP) test apparatus (the same as that in Example 19); and spontaneous activity detecting apparatus (developed by the Institute of Chinese Materia Medica, China Academy of Chinese Medical Sciences). The test was automatically controlled by a computer. The apparatus includes four spontaneous activity observation chamber, a video synthesizer, a video pattern sampling card, and analysis software. The system performs video tracking of the rat activity and automatically records the rat activity track and activity times. The spontaneous activity evaluation index is the total activity times in a certain period of time (such as 60 min), and an increase in the total activity times indicates an increase in spontaneous activity. […] In addition, a physiological saline+physiological saline group without nicotine treatment was used as the control group. […] After 60 min, a spontaneous activity detecting apparatus was used to detect the spontaneous activities.

[7] = system: SD rats; remark: listed apart in the source
[8] = system: SD rats; remark: listed apart in the source
[9] = system: SD rats; settings: for drug-seeking behavior and relapse after cocaine addiction: imatinib mesylate 20 and 30 mg/kg
[10] = system: SD rats; remark: listed apart in the source
[11] = system: SD rats; remark: listed apart in the source
[12] = system: SD rats; settings: direct administration; any dose of imatinib mesylate
[13] = system: SD rats; remark: listed apart in the source
[14] = system: SD rats; settings: imatinib mesylate 1, 5, 10, 20, and 30 mg/kg i.p.
[15] = system: SD rats; settings: imatinib mesylate 1, 5, 10, 20, or 30 mg/kg i.p.
[16] = system: SD rats; settings: for morphine tolerance and heat pain threshold in CFA rats: day 6 after model establishment
[17] = Naloxone-precipitated withdrawal symptoms after morphine-induced CPP (jump times, body weight); settings: imatinib mesylate 15, 30, and 45 mg/kg with morphine 5 mg/kg, naloxone 2 mg/kg s.c.; combination or compound preparation
[18] = target: T1, c-Kit; settings: acute morphine 10 mg/kg s.c.; not in other brain regions
[19] = target: T1, c-Kit; settings: acute nicotine 0.5 mg/kg s.c.; not in other brain regions
[20] = imatinib mesylate 1, 5, and 10 mg/kg, ethanol 0.75 g/kg for training CPP
[21] = imatinib mesylate 1 and 5 mg/kg, ethanol 0.5 g/kg for training CPP
[22] = imatinib mesylate 10, 15, 20, and 30 mg/kg, ethanol 0.5 g/kg for training CPP
[23] = imatinib mesylate 15, 20, and 30 mg/kg, ethanol 0.75 g/kg for training CPP

T1 sequence (F7EWK5 26-978): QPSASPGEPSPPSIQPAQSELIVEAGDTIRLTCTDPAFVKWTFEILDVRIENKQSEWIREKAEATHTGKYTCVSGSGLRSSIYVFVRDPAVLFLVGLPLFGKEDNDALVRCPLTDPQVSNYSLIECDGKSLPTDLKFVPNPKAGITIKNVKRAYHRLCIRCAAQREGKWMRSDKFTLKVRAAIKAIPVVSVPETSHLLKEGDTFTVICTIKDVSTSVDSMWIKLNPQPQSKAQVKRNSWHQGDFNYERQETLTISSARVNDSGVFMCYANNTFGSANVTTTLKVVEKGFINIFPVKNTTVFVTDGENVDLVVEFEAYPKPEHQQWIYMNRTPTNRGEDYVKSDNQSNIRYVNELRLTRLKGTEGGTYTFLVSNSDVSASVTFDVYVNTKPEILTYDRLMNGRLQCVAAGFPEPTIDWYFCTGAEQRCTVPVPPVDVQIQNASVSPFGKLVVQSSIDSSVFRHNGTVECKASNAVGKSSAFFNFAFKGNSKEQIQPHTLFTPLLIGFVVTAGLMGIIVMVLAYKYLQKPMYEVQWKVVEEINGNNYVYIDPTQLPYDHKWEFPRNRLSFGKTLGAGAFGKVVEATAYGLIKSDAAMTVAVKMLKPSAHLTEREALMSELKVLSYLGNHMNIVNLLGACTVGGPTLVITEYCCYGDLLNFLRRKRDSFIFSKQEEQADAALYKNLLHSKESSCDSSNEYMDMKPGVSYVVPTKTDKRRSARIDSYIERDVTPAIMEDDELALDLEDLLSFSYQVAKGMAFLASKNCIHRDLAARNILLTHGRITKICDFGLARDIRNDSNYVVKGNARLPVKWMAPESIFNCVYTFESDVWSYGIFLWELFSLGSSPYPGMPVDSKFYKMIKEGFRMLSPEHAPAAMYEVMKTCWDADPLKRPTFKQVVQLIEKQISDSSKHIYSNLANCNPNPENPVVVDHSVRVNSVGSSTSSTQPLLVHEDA

For `CCO` [ethanol], the “activation of c-kit receptor in neurons in nucleus accumbens” value [1] was “specifically activated”.

With `Cc1ccc(NC(=O)c2ccc(CN3CCN(C)CC3)cc2)cc1Nc1nccc(-c2cccnc2)n1` [imatinib mesylate] the “CPP (drug-seeking behavior) after ethanol addiction” value [2, 20] was “no obvious effect”, the “CPP (drug-seeking behavior) after ethanol addiction” value [2, 21] was “no obvious effect” and the “CPP (drug-seeking behavior) after ethanol addiction” value [2, 22] was “can significantly relieve CPP and prevent it from being primed”. For the same compound, the “CPP (drug-seeking behavior) after ethanol addiction” value [2, 23] was “can significantly relieve CPP and prevent it from being primed”, the “expression of morphine sensitization” value ([3]; imatinib mesylate 30 mg/kg i.p. on day 11 before morphine 5 mg/kg challenge) was “the expression of morphine sensitization in rats is inhibited” and the “development of morphine sensitization” value ([3]; imatinib mesylate 30 mg/kg with morphine 10 mg/kg for 5 consecutive days) was “the development of morphine sensitization in rats is inhibited”. For the same compound, the “development of ethanol sensitization” value ([4]; ethanol 0.75 g/kg for 5 consecutive days) was “the development of ethanol sensitization in rats is inhibited”, the “expression of ethanol sensitization” value ([4]; ethanol challenge on day 11) was “the expression of ethanol sensitization in rats is inhibited” and the “development of addiction to high-sugar and high-fat food (CPP)” value ([5]; imatinib mesylate 1, 5, and 10 mg/kg i.p.) was “no significant effect on the development of addiction to high-sugar and high-fat food”. The “development of addiction to high-sugar and high-fat food (CPP)” value ([5]; imatinib mesylate 20 and 30 mg/kg i.p.) was “can significantly inhibit the development of addiction to high-sugar and high-fat food”, the “nicotine withdrawal symptoms (spontaneous activities)” value ([6]; imatinib mesylate 10, 20, and 30 mg/kg, addiction trained by 0.25 mg/kg of nicotine) was “can differently alleviate the withdrawal symptoms” and the “nicotine withdrawal symptoms (spontaneous activities)” value ([6]; imatinib mesylate 20 and 30 mg/kg, addiction trained by 0.5 mg/kg of nicotine) was “can alleviate the withdrawal symptoms”. For the same compound, the “development of ethanol-induced CPP” value [7, 20] was “no significant effect on the development of CPP”, the “development of ethanol-induced CPP” value [7, 21] was “no significant effect on the development of CPP” and the “development of ethanol-induced CPP” value [7, 22] was “can significantly relieve CPP”. The “development of ethanol-induced CPP” value [7, 23] was “can significantly relieve CPP”, the “CPP (drug-seeking behavior) after morphine addiction” value (“CPP … after morphine addiction” below) ([8]; imatinib mesylate 1, 5, and 10 mg/kg i.p., morphine 10 mg/kg for training CPP) was “no obvious effect” and the “CPP … after morphine addiction” value ([8]; imatinib mesylate 1 and 5 mg/kg i.p., morphine 5 mg/kg for training CPP) was “no obvious effect”. For the same compound, the “CPP … after morphine addiction” value ([8]; imatinib mesylate 10, 20, and 30 mg/kg i.p., morphine 5 mg/kg for training CPP) was “can significantly relieve CPP and prevent it from being primed”, the “CPP … after morphine addiction” value ([8]; imatinib mesylate 20 and 30 mg/kg i.p., morphine 10 mg/kg for training CPP) was “can significantly relieve CPP and prevent it from being primed” and the “priming (relapse) after cocaine addiction” value ([9]; direct administration of imatinib mesylate 20 and 30 mg/kg) was “the rats are still primed”. For the same compound, the “drug-seeking behavior and relapse after cocaine addiction” value ([9]; unconditioned stimulus cocaine 3 mg/kg) was “can prevent the drug-seeking behavior and relapse”, the “drug-seeking behavior and relapse after cocaine addiction” value ([9]; unconditioned stimulus cocaine 4 mg/kg) was “can only inhibit the drug-seeking behavior, and cannot prevent relapse” and the “priming (relapse) after challenge with a small dose of ethanol” value ([10]; direct administration of imatinib mesylate) was “are all primed”. The “CPP after ethanol addiction, all treatment groups” value ([10]; imatinib mesylate 15 and 30 mg/kg, ethanol 0.75 g/kg for training CPP) was “can significantly reduce the CPP”, the “drug-seeking behavior and relapse after ethanol addiction” value ([10]; unconditioned stimulus ethanol 0.5 g/kg, imatinib mesylate 20 and 30 mg/kg) was “can only inhibit the drug-seeking behavior, and cannot prevent relapse” and the “priming with high-sugar and high-fat food after 1 week” value ([11]; direct administration, all doses of imatinib mesylate) was “cannot prevent the rats from being primed”. For the same compound, the “food-seeking behavior (CPP)” value ([11]; imatinib mesylate 10, 20, and 30 mg/kg, substance cue, environmental cue or direct administration) was “can inhibit the food-seeking behavior”, the “gambling behavior (choice)” value [12] was “no significant effect” and the “morphine tolerance (heat pain threshold)” value ([13]; 1, 5, and 10 mg/kg i.p., morphine 10 mg/kg s.c.) was “do not have this inhibitory effect”. For the same compound, the “morphine tolerance (heat pain threshold)” value ([13]; 20 and 30 mg/kg i.p., morphine 10 mg/kg s.c.) was “can prevent the development of CPP”, the “morphine tolerance (heat pain threshold)” value ([13]; 20 and 30 mg/kg i.p., morphine 10 mg/kg s.c., listed as Imatinib sulfonate) was “can significantly reduce the expression of morphine-induced tolerance” and the “minimum dose of imatinib mesylate preventing morphine tolerance” value ([13]; dose ratio to morphine 2:1 or greater) was 10 mg/kg. The “morphine tolerance (heat pain threshold)” value ([13]; imatinib mesylate 10, 20, and 30 mg/kg, tolerance induced by 5 mg/kg morphine) was “can prevent the development of morphine tolerance”, the “treatment and prevention of morphine tolerance” value ([13]; low dose of 5 mg/kg, rats) was “can be used in the treatment and prevention of morphine tolerance in rats” and the “HPT, imatinib mesylate+physiological saline compared with physiological saline+physiological saline” value [14] was “no obvious change”. The “heat pain threshold, imatinib mesylate+morphine compared with morphine+physiological saline” value ([14]; morphine 10 mg/kg s.c.) was “no obvious change”, the “hind paw licking time, imatinib mesylate+physiological saline compared with physiological saline+physiological saline” value [15] was “no obvious changes” and the “hind paw licking time, imatinib mesylate+morphine compared with morphine+physiological saline” value ([15]; morphine 10 mg/kg s.c.) was “no obvious changes”. The “morphine tolerance and heat pain threshold in CFA rats” value ([16]; imatinib mesylate 1, 5, and 10 mg/kg) was “have no this effect”, the “morphine tolerance and heat pain threshold in CFA rats” value ([16]; imatinib mesylate 20 and 30 mg/kg) was “can significantly prevent the development of morphine tolerance” and the “heat pain threshold, imatinib mesylate+morphine compared with morphine+physiological saline” value ([16]; days 4 and 5 after model establishment, morphine 10 mg/kg s.c.) was “no obvious change”. For the same compound, the “morphine withdrawal symptoms (jump times, changes in body weight)” value [17] was “can alleviate the withdrawal symptoms”.

In the case of `CNC1(C)C2CCC(C2)C1(C)C` (centres unmarked) [mecamylamine], the “spontaneous activities of rats with nicotine addiction” value ([6]; mecamylamine 0.5 mg/kg, withdrawal symptoms aroused) is reported as “the spontaneous activities decreases significantly”.

In the case of `CN1CC[C@]23c4c5ccc(O)c4O[C@H]2[C@@H](O)C=C[C@H]3[C@H]1C5` [morphine], the “activation of c-kit receptor and downstream signaling molecules in neurons in nucleus accumbens” value [18] is reported as “specifically activated”.

For `CN1CCCC1c1cccnc1` (centres unmarked) [nicotine], the “activation of c-kit receptor and downstream signaling molecules in neurons in nucleus accumbens” value [19] was “specifically activated”.
